Measured values from US8710045B2, “Agents for preventing and treating disorders involving modulation of the ryanodine receptors” (The Trustees of Columbia University in the City of New York, priority 2004, dated 2014).
Values joined by “and” are separate entries in the source; they are usually repeats but may differ in a detail not shown here. Identical values can stand only once.

Key:
[1] = test system: FKBP12.6+/− mice
[2] = test system: skeletal muscle; conditions: five weeks after left coronary artery ligation; cited from earlier work
[3] = test system: RyR2; conditions: wildtype mice, 0.5 mg/kg/h for 28 days post-myocardial infarction
Description: Equivalent amounts of RyR2 are immunoprecipitated with an antibody against RyR2 (top blot).

[4] = molecular target: T1, PKA-phosphorylated RyR2 (Homo sapiens, UniProt Q92736); assay: FKBP12.6 rebinding assay: FKBP12.6 binding to PKA-phosphorylated RyR2 in cardiac SR; conditions: compound 0.5-1000 nM; Michaelis-Menten curve fitting
T1 construct: from tissue
Protocol: Samples are centrifuged at 95,000 g for 10 min and the pellets are washed three times in 0.2 ml imidazole buffer. The final pellets are pooled and resuspended in imidazole buffer (final concentration≈10 μg/μl). […] Samples then are centrifuged at 100,000 g for 10 minutes and pellets washed 3 times with imidizol buffer. […] Immunoblots are developed using an anti-FKBP antibody (1:3,000 dilution). […] The intracellular solution contains (in mM): CsCl, 60; CaCl2, 1; EGTA, 11; MgCl2, 1; K2ATP, 5; HEPES, 10; aspartic acid, 50; pH 7.4 (CsOH). Under these conditions, it is expected that the measured current was carried by Ba^2+ primarily through L-type calcium channels which is referred to as ICa,L. Drugs are applied by a local solution changer and reach the cell membrane within 1 s.
The FKBP12.6 rebinding assay described above is used to determine the amount of FKBP12.6 binding to PKA-phosphorylated RyR2 at various concentrations (0.5-1000 nM) of the compounds shown. EC50 values are calculated using Michaelis-Menten curve fitting.
The EC50 values are calculated using Michaelis-Menten curve fitting.

[5] = molecular target: hERG (Homo sapiens, UniProt Q12809); assay: hERG current, PatchXpress 7000A automatic parallel patch clamp in hERG-transfected HEK 293 cells (Example 6); conditions: human, HEK 293 cells stably transfected with hERG cDNA
Protocol: (§1) HEK293 cells were transfected with a plasmid containing the hERG cDNA and a neomycin resistance gene. Stable transfectants were selected by culturing the cells in the presence of G418. The selection pressure was maintained by continued culture in the presence of G418. […] Cells for use in electrophysiology were cultured in 35 mm dishes.
(§2) Onset and steady state block of hERG current was measured using a pulse pattern with fixed amplitudes (conditioning prepulse: +20 mV for 2 seconds; test pulse: −50 mV for 2 seconds) repeated at 10 second intervals, from a holding potential of −80 mV. Peak tail current was measured during the 2 second step to −50 mV. A steady state was maintained for at least 30 seconds before applying the test compound or the positive control. Peak tail current was monitored until a new steady state was achieved. Test compound concentrations were applied cumulatively in ascending order without washout between applications.
(§3) Data acquisition and analysis was performed using the suite of pCLAMP (Vre. 8.2) programs (Axon Instruments, Union City, Calif.). Steady state was defined by the limiting constant rate of change with time (linear time dependence). The steady state before and after application of the test or control compounds was used to calculate the percentage of current inhibited at each concentration. […] Nonlinear squares fits were solved with the Solver add-in for Excel 2000 (Microsoft, Redmond, Wash.).
(§4) Multiple compounds of the invention were tested for their effects on hERG currents. The compounds tested were: ARM036-Na, ARM047, ARM048, ARM050, ARM057, ARM064, ARM074, ARM075, ARM076, ARM077, ARM101, ARM102, ARM103, ARM104, ARM106, ARM107 and ARM26. […] Electrophysiological recordings were made using the PatchXpress 7000 A (Molecular Devices) automatic parallel patch clamp system. […] The duration of exposure to each test concentration was 5 minutes.

[6] = molecular target: hERG current (Homo sapiens, UniProt Q12809); assay: as above; conditions: for Individual Data (% Inhibition): single cell; for hERG current inhibition at the highest concentration tested: highest concentration tested (10 μM)
Protocol: as §1, §2, §3, §4

[7] = Individual Data (% Inhibition), single cell
[8] = Individual Data (% Inhibition), 10 μM, single cell
[9] = hERG current inhibition at the highest concentration tested, highest concentration tested (10 μM)

hERG current, sequence (Q12809 whole entry): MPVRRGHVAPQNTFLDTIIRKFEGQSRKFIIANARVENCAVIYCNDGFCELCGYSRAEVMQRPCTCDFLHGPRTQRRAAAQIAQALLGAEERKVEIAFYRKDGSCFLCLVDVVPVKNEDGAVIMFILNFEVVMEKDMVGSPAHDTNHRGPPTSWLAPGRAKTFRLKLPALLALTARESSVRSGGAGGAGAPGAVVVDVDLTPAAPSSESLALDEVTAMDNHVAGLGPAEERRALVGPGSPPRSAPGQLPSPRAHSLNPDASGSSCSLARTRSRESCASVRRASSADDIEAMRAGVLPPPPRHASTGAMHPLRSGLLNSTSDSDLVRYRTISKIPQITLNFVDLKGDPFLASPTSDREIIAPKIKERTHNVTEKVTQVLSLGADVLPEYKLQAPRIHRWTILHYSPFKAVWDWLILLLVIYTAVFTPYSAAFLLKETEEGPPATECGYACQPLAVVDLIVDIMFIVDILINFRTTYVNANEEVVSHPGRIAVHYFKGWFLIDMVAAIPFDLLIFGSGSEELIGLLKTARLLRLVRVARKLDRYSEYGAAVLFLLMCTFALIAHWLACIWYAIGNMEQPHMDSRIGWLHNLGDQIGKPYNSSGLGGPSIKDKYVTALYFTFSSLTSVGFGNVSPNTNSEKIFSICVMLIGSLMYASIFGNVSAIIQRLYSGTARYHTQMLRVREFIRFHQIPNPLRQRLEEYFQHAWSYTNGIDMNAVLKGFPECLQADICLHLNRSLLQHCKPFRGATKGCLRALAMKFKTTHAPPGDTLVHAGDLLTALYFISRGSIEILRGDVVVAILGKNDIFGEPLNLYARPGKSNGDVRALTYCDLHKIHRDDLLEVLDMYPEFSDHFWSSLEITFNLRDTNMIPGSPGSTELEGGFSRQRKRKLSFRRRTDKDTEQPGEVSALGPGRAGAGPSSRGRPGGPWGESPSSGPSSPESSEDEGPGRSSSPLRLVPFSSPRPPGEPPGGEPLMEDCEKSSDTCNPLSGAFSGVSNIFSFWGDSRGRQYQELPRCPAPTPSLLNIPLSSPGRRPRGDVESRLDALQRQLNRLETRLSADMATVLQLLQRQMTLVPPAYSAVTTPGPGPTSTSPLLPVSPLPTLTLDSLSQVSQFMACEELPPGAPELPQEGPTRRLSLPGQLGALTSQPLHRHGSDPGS
hERG, sequence (Q12809 whole entry): as above

Compound | EC50 [4] [nM] | inhibition at 5 min, 0.01 µM [5, 7] [%] | inhibition at 5 min, 0.1 µM [5, 7] [%] | inhibition at 5 min, 1 µM [5, 7] [%] | inhibition at 5 min, 10 µM [5, 8] [%] | inhibition at 5 min, 0.01 µM ([5]; Mean % hERG Inhibition) [%] | inhibition at 5 min, 0.1 µM ([5]; Mean % hERG Inhibition) [%] | inhibition at 5 min, 1 µM ([5]; Mean % hERG Inhibition) [%] | inhibition at 5 min, 10 µM ([5]; Mean % hERG Inhibition, 10 μM) [%] | inhibition at 5 min, 10 µM [5, 9] [%] | Mean % hERG Inhibition ([6]; 0.01 μM) [%] | Mean % hERG Inhibition ([6]; 0.1 μM) [%] | Mean % hERG Inhibition ([6]; 1 μM) [%] | Mean % hERG Inhibition ([6]; 10 μM) [%] | hERG current inhibition at the highest concentration tested [6] | also measured
COc1ccc2c(c1)CN(C(=O)CCN1CCC(Cc3ccccc3)CC1)CCS2.Cl [JTV-519, 4-[3-(4-benzylpiperidin-1-yl)propionyl]-7-methoxy-2,3,4,5-tetrahydro-1,4-benzothiazepine monohydrochloride] | – | – | – | – | – | – | – | – | – | – | – | – | – | – | – | resting heart rate or other ECG parameters ([1]; 0.5 mg/kg/h for 7 days, osmotic mini-pump): no effect; cardiac arrhythmias and sudden cardiac death ([1]; plasma level 1 μM): prevent; skeletal muscle function [2]: able to improve skeletal muscle function; PKA phosphorylation of RyR2 at Ser-2808 [3]: reduces
COc1ccc2c(c1)CNCCS2 [S26] | 40 | 9.1 | 12.3 | 11.3 | 56.4 | 8.9 | 10.5 | 12.3 | 58.3 | – | – | – | – | – | – | IC50 [6]: 7.03 µM; Individual Data (% Inhibition) ([6]; 0.01 μM): 8.7%; Individual Data (% Inhibition) ([6]; 0.1 μM): 8.6%; Individual Data (% Inhibition) ([6]; 1 μM): 13.2%; Individual Data (% Inhibition) ([6]; 10 μM): 60.1%
COc1ccc2c(c1)CN(C(=O)N1CCNCC1)CCS2 [S64] | 44 | – | 9.9 | – | 32 | 0.2 | 9 | 9.6 | 30.3 | < 50 | – | – | – | – | – | Individual Data (% Inhibition) ([6]; 0.01 μM, listed as ARM064, 0.01 µM): −0.6% and 1.0%; Individual Data (% Inhibition) ([6]; 0.1 μM, listed as ARM064, 0.1 µM): 8.1%; Individual Data (% Inhibition) ([6]; 1 μM, listed as ARM064, 1 µM): 13.2% and 6.0%; Individual Data (% Inhibition) ([6]; 10 μM, listed as ARM064, 10 µM): 28.5%
O=C(O)C(=O)N1CCSc2ccccc2C1 [S77] | 60 | – | – | – | – | – | – | – | – | – | 1.3 | 7.5 | 3.6 | 4.1 | less than 50% | Individual Data (% Inhibition) ([6]; 0.01 μM, listed as ARM077, 0.01 µM): 1.4% and 1.1%; Individual Data (% Inhibition) ([6]; 0.1 μM, listed as ARM077, 0.1 µM): 11.4% and 3.6%; Individual Data (% Inhibition) ([6]; 1 μM, listed as ARM077, 1 µM): 3.1% and 4.0%; Individual Data (% Inhibition) ([6]; 10 μM, listed as ARM077, 10 µM): 0.9% and 7.2%
O=C(N1CCN(Cc2ccc3c(c2)OCO3)CC1)N1CCSc2ccccc2C1 [S101] | 105 | 4.3 | 5.1 | 18.9 | 66.7 | 3.4 | 6.4 | 23 | 65.8 | < 50 | – | – | – | – | – | IC50 [6]: 4.41 µM; Individual Data (% Inhibition) ([6]; 0.01 μM, listed as ARM101, 0.01 µM): 2.5%; Individual Data (% Inhibition) ([6]; 0.1 μM, listed as ARM101, 0.1 µM): 7.6%; Individual Data (% Inhibition) ([6]; 1 μM, listed as ARM101, 1 µM): 27.0%; Individual Data (% Inhibition) ([6]; 10 μM, listed as ARM101, 10 µM): 64.9%
O=C(N1CCCCC1)N1CCSc2ccccc2C1 [S102] | 135 | – | – | – | – | – | – | – | – | – | 2.5 | 4.2 | 5.7 | 47.3 | less than 50% | Individual Data (% Inhibition) ([6]; 0.01 μM, listed as ARM102, 0.01 µM): 0.5% and 4.4%; Individual Data (% Inhibition) ([6]; 0.1 μM, listed as ARM102, 0.1 µM): 1.8% and 6.5%; Individual Data (% Inhibition) ([6]; 1 μM, listed as ARM102, 1 µM): 0.8% and 10.5%; Individual Data (% Inhibition) ([6]; 10 μM, listed as ARM102, 10 µM): 46.2% and 48.3%
COc1ccc2c(c1)CN(C(=O)C(=O)O)CCS2(=O)=O [S104] | 111 | – | – | – | – | – | – | – | – | – | 1.6 | 2.5 | 4.6 | 7.4 | less than 50% | Individual Data (% Inhibition) ([6]; 0.01 μM, listed as ARM104, 0.01 µM): 1.2% and 1.9%; Individual Data (% Inhibition) ([6]; 0.1 μM, listed as ARM104, 0.1 µM): 1.1% and 3.9%; Individual Data (% Inhibition) ([6]; 1 μM, listed as ARM104, 1 µM): 3.1% and 6.0%; Individual Data (% Inhibition) ([6]; 10 μM, listed as ARM104, 10 µM): 8.3% and 6.5%

More lines, main results first:

EC50 [4] [nM] | Compound | inhibition at 5 min, 0.01 µM [5, 7] [%] | inhibition at 5 min, 0.1 µM [5, 7] [%] | inhibition at 5 min, 1 µM [5, 7] [%] | inhibition at 5 min, 10 µM [5, 8] [%] | inhibition at 5 min, 0.01 µM ([5]; Mean % hERG Inhibition) [%] | inhibition at 5 min, 0.1 µM ([5]; Mean % hERG Inhibition) [%] | inhibition at 5 min, 1 µM ([5]; Mean % hERG Inhibition) [%] | inhibition at 5 min, 10 µM ([5]; Mean % hERG Inhibition, 10 μM) [%] | inhibition at 5 min, 10 µM [5, 9] [%] | Mean % hERG Inhibition ([6]; 0.01 μM) [%] | Mean % hERG Inhibition ([6]; 0.1 μM) [%] | Mean % hERG Inhibition ([6]; 1 μM) [%] | Mean % hERG Inhibition ([6]; 10 μM) [%] | hERG current inhibition at the highest concentration tested [6] | also measured
100 | CCN(CC)C(=O)N1CCSc2ccc(OC)cc2C1 [S48] | – | 4.2 | 4.7 | 15.2 | 1.3 | 3.6 | 4.1 | 14 | < 50 | – | – | – | – | – | Individual Data (% Inhibition) ([6]; 0.01 μM, listed as ARM048, 0.01 µM): 0.5% and 2.0%; Individual Data (% Inhibition) ([6]; 0.1 μM, listed as ARM048, 0.1 µM): 2.9%; Individual Data (% Inhibition) ([6]; 1 μM, listed as ARM048, 1 µM): 3.5%; Individual Data (% Inhibition) ([6]; 10 μM, listed as ARM048, 10 µM): 12.8%
150 | CCN(CC)C(=O)N1CCSc2ccccc2C1 [S75] | 1.7 | 2.6 | 3.7 | 14.7 | 1.4 | 3.7 | 3.9 | 16 | < 50 | – | – | – | – | – | Individual Data (% Inhibition) ([6]; 0.01 μM, listed as ARM075, 0.01 µM): 1.1%; Individual Data (% Inhibition) ([6]; 0.1 μM, listed as ARM075, 0.1 µM): 4.8%; Individual Data (% Inhibition) ([6]; 1 μM, listed as ARM075, 1 µM): 4.1%; Individual Data (% Inhibition) ([6]; 10 μM, listed as ARM075, 10 µM): 17.2%
25 | COC(=O)C(=O)N1CCSc2ccccc2C1 [S76] | – | – | – | 10 | 0.4 | 2.5 | 3.1 | 11.2 | < 50 | – | – | – | – | – | Individual Data (% Inhibition) ([6]; 0.01 μM, listed as ARM076, 0.01 µM): 0.0% and 0.7%; Individual Data (% Inhibition) ([6]; 0.1 μM, listed as ARM076, 0.1 µM): 4.0% and 0.9%; Individual Data (% Inhibition) ([6]; 1 μM, listed as ARM076, 1 µM): 2.0% and 4.1%; Individual Data (% Inhibition) ([6]; 10 μM, listed as ARM076, 10 µM): 12.3%
